# Several values for one entry are separate records, joined by “and”; a condition that tells them apart may be missing. Equal entries are not always repeated.
# Columns and labels:
# [1] = Acute toxicity (LD50) in mouse; details: Albino Swiss CD-1, in vivo, single administration
# Procedure: 194. Acute toxicity has been determined in the mouse (Albino Swiss CD-1, body weight 30 g). Mice were orally treated, or intravenously injected, with single administration of increasing doses of the test substance to identify the dose causing 50% mortality. Mortality occurred within 30 min after the administration and survival after 24 h. The acute toxicity (LD50) was then assessed.
# The acute toxicity of the tested compound CVie 101 has been determined in the mouse (Albino Swiss CD-1, body weight 30 g). CVie 101 has been orally administered or intravenously injected at increasing doses to identify the dose causing 50% mortality. Mortality occurred within 30 min after the administration and survival after 24 h.
# [2] = target: T1, Adrenergic β2 (Homo sapiens, UniProt P07550); test: Receptor binding 204110
# T1 construct: Eurofins 204110; host or cells: crude membrane preparation
# Procedure: (§1) Radioligand binding to a panel of receptors was carried out by Eurofins on crude membrane preparations according to published procedures and by using appropriate reference standard (Eurofins, CVie 101 compound code PT #1207859, study #AB76416, quote #68407-1, for Cvie Therapeutics Limited, Taiwan (R.OC.) on Mar. 5, 2017). CVie 101 was tested at the concentration of 10 μM. No significant interaction was documented, except for Sodium Channel, site 2 from rat (cat #279510), where a significant response (≥50%) was noted (Table 7).
# [3] = test system: Nicotinic Acetylcholine; test: Receptor binding 258590; design: species or system human; details: 10 μM
# Procedure: as §1
# [4] = test system: STZ diabetic rats; test: Haemodynamics in streptozotocin diabetic rats (echocardiography); assay type: in vivo, rat; details: 20 mg/kg os, after treatment, mean ± SD, n = 12
# Procedure: Sprague Dawley male rats (150-175 g) were made diabetic by a single injection into the tail vein of a solution of streptozotocin (STZ, 50 mg/kg, Sigma-Aldrich), freshly prepared in 0.1 M sodium citrate buffer, pH 4.5. Control rats received citrate buffer. Fasting glycaemia was measured after 1 week and rats with values >400 mg/dl were considered diabetic.
# Eight-nine weeks after STZ injection, rats were submitted to transthoracic echocardiographic and Doppler evaluation performed under pentobarbital anesthesia. Two-dimensionally guided M-mode recordings were used to obtain short-axis measurements of left ventricular end-diastolic diameter (LVEDD), left ventricular end-systolic diameter (LVESD), posterior (PW) and septal (SW) diastolic wall thickness according to the American Society of Echocardiography guidelines (Lang R M et al. Eur J Echocardiography 2006; 7:79-108). Fractional shortening was calculated as FS=(LVEDD-LVESD)/LVEDD. Relative wall thickness was calculated as PWTd+IVSTd/LVEDD.
# Mitral inflow was measured by pulsed Doppler at the tips of mitral leaflets from an apical 4-chamber view to obtain early and late filling velocities (E, A) and deceleration time of early filling velocity (DT). The deceleration slope was calculated as E/DT ratio. The mitral deceleration index was calculated as DT/E ratio.
# Tissue Doppler Imaging (TDI) was evaluated from the apical 4-chamber view to record septal mitral annular movements, i.e., peak myocardial systolic (s′) and early and late diastolic velocity (e′ and a′).
# Compound CVie 101 was orally administered to STZ injected rats at the dose of 20 mg/kg and echocardiographic parameters were measured after 1 h.
# [5] = target: T2, HMG-CoA Reductase (Homo sapiens, UniProt P04035); test: Eurofins panel 124010; assay type: biochemical
# T2 construct: Eurofins 124010
# [6] = test system: guinea pig; test: Haemodynamics: inotropic and lethal dose in guinea pig; assay type: in vivo; details: for E max % increase in dP/dtmax: 90 min; for ED max: cumulative dose
# Procedure: Guinea-pigs (400-450 g) were anaesthetized with urethane (1.5 g/kg ip). A microtip pressure transducer was introduced into the left ventricle through the right carotid artery to measure ventricular pressure (LVP); the transducer was coupled with a transducer amplifier. Recordings were fed to a polygraph and analyzed. A polythene cannula was inserted into a jugular vein for drug infusion. After a stabilization period, the test substance was injected at the rate of 0.16 ml/min for 90 min (Micheletti R et al. J Pharmacol Exp Ther 2002; 303:592-600).
# The following parameters were obtained: heart rate (HR), left ventricular pressure (LVP), maximal velocity of pressure rise (+dP/dtmax) and decay (−dP/dtmax), ECG. For inotropy, the time elapsed until +dP/dtmax increased by 80% was identified in order to determine the ED80 (dose increasing basal +dP/dtmax by 80%). The time to the maximum increase in +dP/dtmax was also identified to determine the maximum effective dose, EDmax. Lusitropy was characterized by the dose inducing the maximum decrease in −dP/dtmax, (EDmax). As indexes of toxicity, the dose administered until the onset of arrhythmias and the dose inducing death (LD) were calculated. The safety ratio for the tested compound was also calculated as the ratio between LD and ED80.
# [7] = target: T3, Sigma σ2 (Homo sapiens, UniProt Q5BJF2); test: Receptor binding 299007
# T3 construct: Eurofins (contract assay) 299007
# Procedure: as §1
# T1 sequence (P07550 whole entry): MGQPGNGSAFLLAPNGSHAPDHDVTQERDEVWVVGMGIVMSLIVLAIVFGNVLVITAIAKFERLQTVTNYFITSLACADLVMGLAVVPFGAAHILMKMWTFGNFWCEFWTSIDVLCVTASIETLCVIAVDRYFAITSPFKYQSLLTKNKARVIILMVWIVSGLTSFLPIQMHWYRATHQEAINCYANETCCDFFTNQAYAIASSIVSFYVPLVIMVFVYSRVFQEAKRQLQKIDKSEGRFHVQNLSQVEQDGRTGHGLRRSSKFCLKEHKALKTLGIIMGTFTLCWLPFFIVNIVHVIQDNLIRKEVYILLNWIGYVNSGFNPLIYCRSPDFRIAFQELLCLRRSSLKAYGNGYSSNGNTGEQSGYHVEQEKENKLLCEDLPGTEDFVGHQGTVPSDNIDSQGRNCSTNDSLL
# T3 sequence (Q5BJF2 whole entry): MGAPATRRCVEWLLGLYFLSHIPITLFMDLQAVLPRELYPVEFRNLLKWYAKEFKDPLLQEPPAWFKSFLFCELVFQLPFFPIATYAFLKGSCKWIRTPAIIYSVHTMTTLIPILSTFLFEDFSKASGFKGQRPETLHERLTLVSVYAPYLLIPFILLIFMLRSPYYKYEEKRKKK
# T2 sequence (P04035 426-888 limits assumed): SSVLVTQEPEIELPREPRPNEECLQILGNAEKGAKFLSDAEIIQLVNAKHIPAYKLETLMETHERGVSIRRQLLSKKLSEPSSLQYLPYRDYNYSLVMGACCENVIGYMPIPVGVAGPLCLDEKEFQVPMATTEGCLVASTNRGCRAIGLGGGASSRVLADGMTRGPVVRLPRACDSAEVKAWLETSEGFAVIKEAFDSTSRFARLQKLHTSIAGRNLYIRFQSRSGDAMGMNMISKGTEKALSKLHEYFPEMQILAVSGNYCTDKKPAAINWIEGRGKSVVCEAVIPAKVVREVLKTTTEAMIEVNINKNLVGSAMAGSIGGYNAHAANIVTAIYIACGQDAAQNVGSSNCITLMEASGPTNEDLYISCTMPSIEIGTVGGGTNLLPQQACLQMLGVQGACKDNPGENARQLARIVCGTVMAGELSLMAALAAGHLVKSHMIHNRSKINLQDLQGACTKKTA
smiles,measurement,setting,value
"C[C@]12CC[C@H](O)C[C@H]1CCC1C2CC[C@]2(C)[C@@H](c3c[nH]cn3)CC[C@]12O (stereo partly drawn) [CVie 101, 3β-hydroxy-5β-10β-methyl-13β-methyl-14β-hydroxy-17β-(imidazol-4-yl)androstane]",LD50 at 24 h,[1]; iv,20 mg/kg
same,LD50 at 24 h,"[1]; oral, os",350 mg/kg
same,inhibition at 10 µM,[2],1%
same,% inhib,[3],2%
same,A (late filling velocity of mitral inflow),[4],0.76 ± 0.17 m/s
same,A′ (TDI late relaxation velocity),[4],28.7 ± 6.6 cm/s
same,CO (cardiac output),[4],219.0 ± 76.7 mL/min
same,DT (deceleration time of E wave),[4],47.7 ± 4.8 ms
same,DT/E (mitral deceleration index),[4],51.0 ± 10.2 ms·s/m
same,E (early filling velocity of mitral inflow),[4],0.96 ± 0.14 m/s
same,E/A (index of LV function),[4],1.29 ± 0.22
same,E/DT (deceleration slope),[4],20.3 ± 4.1 m/s2
same,E/e′ (index of LV filling pressure),[4],38.0 ± 4.9
same,E′ (TDI early relaxation velocity),[4],25.2 ± 1.9 cm/s
same,FS (fractional shortening),[4],45.1 ± 3.4 %
same,HR (heart rate),[4],262 ± 48.1 beat/min
same,SV (stroke volume),[4],0.82 ± 0.21 ml/beat
same,S′ (TDI contraction velocity),[4],23.8 ± 3.6 cm/s
same,inhibition at 10 µM,[5],7%
same,Dead/treated number,[6]; i.v. infusion 0.2 mg/kg/min,1/8
same,ED80,[6]; i.v. infusion 0.2 mg/kg/min,1.6 mg/kg and 1.60 mg/kg
same,Lethal dose,[6]; i.v. infusion 0.2 mg/kg/min,>18 mg/kg
same,E max % increase in dP/dtmax,[6]; i.v. infusion 0.2 mg/kg/min,163.6%
same,ED max,[6]; i.v. infusion 0.2 mg/kg/min,3.73 mg/kg
same,Dead/treated number,[6]; i.v. infusion 0.5 mg/kg/min,8/8
same,ED80,[6]; i.v. infusion 0.5 mg/kg/min,2.74 mg/kg
same,Lethal dose,[6]; i.v. infusion 0.5 mg/kg/min,28.2 mg/kg
same,E max % increase in dP/dtmax,[6]; i.v. infusion 0.5 mg/kg/min,216.8%
same,ED max,[6]; i.v. infusion 0.5 mg/kg/min,5.08 mg/kg
same,LD/ED80,"[6]; i.v. infusion 0.5 mg/kg/min, safety ratio",11.32
same,inhibition at 10 µM,[7],30%

# Source: patent US11730746B2, “17beta-heterocyclyl-digitalis like compounds for the treatment of heart failure” (priority 2018, dated 2023)
